Test results: patent US9115145B2, “Tocotrienol derivatives and associated methods” (FIRST TECH INTERNATIONAL LIMITED, priority 2011, dated 2015)
Read-outs that look alike come from different tables or passages of the source.

Columns and labels:
[1] = tested on: +SA mammary epithelial cells; experiment: MTT assay of +SA cells (antiproliferative activity); type: cell-based, mouse; details: for IC50: Mus musculus, +SA cell, 24 hours treatment, read-out: IC50 antiproliferative activity against +SA mammary epithelial cells; for antiproliferative activity against +SA mammary tumor cells (in words): described from FIG. 32 / text
Description: The antiproliferative activities of Compounds 3-44 against the highly metastatic malignant +SA mammary epithelial cells were evaluated by MTT assay. Materials for the assay were purchased from Sigma Chemical Company (St. Louis, Mo.) unless otherwise stated. The highly malignant +SA mouse mammary epithelial cell line was serially passaged at subconfluent cell density. The +SA mammary tumor cell line was derived from an adenocarcinoma that developed spontaneously in a BALB/c female mouse. +SA cells were maintained in serum-free defined medium consisting of Dulbecco's modified Eagle's medium (DMEM)/F12 containing 5 mg/mL bovine serum albumin (BSA), 10 […], 100 U/mL soybean trypsin inhibitor, 100 U/mL penicillin G, 0.1 mg/mL streptomycin, […], and 10 ng/mL epidermal growth factor. For subculturing, cells were rinsed twice with sterile Ca2+ and Mg2+-free phosphate buffered saline (PBS) and incubated in 0.05% trypsin containing 0.025% EDTA in PBS for 5 min at 37° C. The released cells were centrifuged, resuspended in fresh media and counted using hemocytometer. A stock solution of the compounds was prepared in DMSO. Once dissolved, this solution was added to a small volume of sterile 10% BSA in water and incubated overnight at 37° C. This solution conjugated to BSA was used to prepare various concentrations (0-40 μM) of tocotrienol analogs. DMSO was added to all treatment media such that the final DMSO concentration was the same in all treatment groups within a given experiment and was always less than 0.1%. For cytotoxic studies, cells were seeded at a density of 5×10^4 cells/well (+SA cells) or 1×10^5 cells/well (CL-S1 cells) (6 wells/group) in 24-well culture plates and allowed to grow in their respective control media. After 3 days incubation period (approximately 70% confluency), cells were divided equally into various treatment groups and exposed to their respective treatments for a 24 hours incubation period. Following the 24 hours treatment period, cell viability was measured using the MTT assay.
+SA Mammary epithelial cell viable number was determined by a 3-(4,5-dimethylthiazol-2yl)-2,5-diphenyl tetrazolium bromide (MTT) colorimetric assay. On the assay day, treatment medium was replaced with fresh control medium containing 0.42 mg/mL MTT, and the cells in 24-well plates were incubated at 37° C. for 4 hours. Afterward, the medium was removed, and the MTT crystals were dissolved in isopropyl alcohol (1 mL/well). The optical density of each sample was read at 570 nm on a microplate reader (SpectraCount, Packard BioScience Company), against a blank prepared from cell-free cultures. The number of cells/well was calculated against a standard curve prepared by plating various concentrations of cells, as determined by hemocytometer, at the start of each experiment.
Differences among the various treatment groups in +SA cell cytotoxic studies were determined by analysis of variance (ANOVA) followed by Dunnett's t-test. The difference of P<0.05 was considered to be statistically significant as compared with vehicle-treated controls unless separately described. Linear regression analysis of treatment effects on viable cell number in growth and cytotoxicity studies was used to determine the 50% growth inhibition concentration (IC50) for individual treatments.

[2] = tested on: 60 human tumor cell lines; experiment: NCI in vitro screening against 60 human cell lines, single concentration; type: cell-based; details: 10 μM dose; negative values indicate cytotoxicity
Description: Compounds selected from Compounds 3-44 were provided to the National Cancer Institute for in vitro screening against 60-human cell lines for their ability to inhibit the growth of tumor cells in a full panel representing nine different organs (blood, lung, colon, CNS, skin, ovary, kidney, prostate, and breast). The compounds were tested at a single concentration of 10 μM, and the percentages of growth inhibitions over the sixty tested cell lines were determined. Compounds showing the highest activity were chosen for secondary assays using five different compound concentrations.
The human tumor cell lines of the cancer screening panel were grown in RPMI 1640 medium containing 5% fetal bovine serum and 2 mM L-glutamine. For a typical screening experiment, cells are inoculated into 96 well microtiter plates in 100 μL at plating densities ranging from 5000 to 40,000 cells/well depending on the doubling time of individual cell lines. After cell inoculation, the microtiter plates are incubated at 37° C., 5% CO2, 95% air and 100% relative humidity for 24 hours prior to addition of experimental drugs. After 24 hours, two plates of each cell line are fixed in situ with Trichloroacetic acid (“TCA”), to represent a measurement of the cell population for each cell line at the time of drug addition. Experimental drugs are solubilized in dimethyl sulfoxide at 400-fold the desired final maximum test concentration and stored frozen prior to use. At the time of drug addition, an aliquot of frozen concentrate is thawed and diluted to twice the desired final maximum test concentration with complete medium containing 50 ng/mL gentamicin. An aliquot of 100 μL of this drug dilution is added to the appropriate microtiter wells already containing 100 μL of medium, resulting in the required final drug concentrations. Following drug addition, the plates are incubated for an additional 48 h at 37° C., 5% CO2, 95% air, and 100% relative humidity. For adherent cells, the assay is terminated by the addition of cold TCA. Cells are fixed in situ by the gentle addition of 50 μL of cold 50% (w/v) TCA (final concentration, 10% TCA) and incubated for 60 min at 4° C. The supernatant is discarded, and the plates are washed five times with tap water and air dried. Sulforhodamine B (SRB) solution (100 μL) at 0.4% (w/v) in 1% acetic acid is added to each well, and plates are incubated for 10 min at room temperature. After staining, unbound dye is removed by washing five times with 1% acetic acid and the plates are air dried. Bound stain is subsequently solubilized with 10 mM trizma base, and the absorbance is read on an automated plate reader at a wavelength of 515 nm. For suspension cells, the methodology is the same except that the assay is terminated by fixing settled cells at the bottom of the wells by gently adding 50 μL of 80% TCA (final concentration, 16% TCA). FIGS. 37-74 indicate the growth inhibition effects of selected Compounds against a variety of cell lines based on the above described testing configuration. FIGS. 37-74 present the Growth percent for a given compound against the cell lines and both values and a bar chart of the difference between the mean growth percent and the growth percent which is an indication of the selectivity of the compound for that particular cell line.

[3] = tested on: MCF7 human breast cancer cell line; experiment: MTT assay of MCF7 cells; type: cell-based; details: Homo sapiens, media containing 1% fetal bovine serum
Description: (§1) MDA-MB-231 and MCF7 cells were plated at a density of 8×10^3 cells/well and 10^4 cells/well in 96-well culture plates, respectively. The compounds were fed in serum free media containing 5% and 1% fetal bovine serum for MDA-MB-231 and MCF7 cells, respectively.

[4] = tested on: MDA-MB-231 human breast cancer cell line; experiment: MTT assay of MDA-MB-231 cells; type: cell-based; details: Homo sapiens, media containing 5% fetal bovine serum
Description: as §1

[5] = tested on: MCF 10A non-tumorigenic mammary epithelial cells; experiment: MTT assay of MCF10A cells; type: cell-based, human; details: for IC50: Homo sapiens; for Selectivity index: IC50 for MCF 10A divided by IC50 for +SA cell line
Description: MCF 10A (ATCC cat # CRL-10317) normal human non-tumorigenic mammary epithelial cells were maintained in serum-free defined medium consisting of Dulbecco's modified Eagle's medium (DMEM)/F12 containing 5% horse serum, 1% penicillin/streptomycin, 0.5 μg/mL hydrocortisone, 100 ng/mL cholera toxin, 10 μg/mL insulin, and 20 ng/mL epidermal growth factor (rhEGF). For subculturing, cells were rinsed twice with sterile Ca2+ and Mg2+-free phosphate buffered saline (PBS) and incubated in 0.25% trypsin containing 0.025% EDTA in PBS for 5 min at 37° C. The released cells were centrifuged, re-suspended in fresh media and counted using a hemocytometer. For testing, MCF 10A cells were plated at a density of 10×10^4 cells/well. A stock solution of the compounds was prepared in DMSO. DMSO was added to all treatment media such that the final DMSO concentration was the same in all treatment groups within a given experiment and was always less than 0.1%. The compounds were fed in serum free media. MCF10A mammary epithelial cell's viable number was determined by MTT colorimetric assay. […] IC50 values were calculated by non-linear regression using statistical software. The selectivity index indicated in the table represents the IC50 value for the MCF 10A cell line divided by the IC50 value for the +SA cell line.

[6] = tested on: MDA-MB-231 human breast cancer cells; experiment: Wound-healing assay (cell migration); type: cell-based; details: Homo sapiens; for inhibition at 5 µM: MDA-MB-231, 24 h, wound-healing assay; for IC50: MDA-MB-231, wound-healing assay, dose response, read-out: IC50 antimigratory activity
Description: The highly metastatic human breast cancer MDA-MB-231 cells were cultured in RPMI 1640 medium containing 10 mM HEPES, 4 mM L-glutamine, 10% fetal bovine serum, penicillin (100 IU/mL), and streptomycin (50 μg/mL), and grown in a 5% CO2 atmosphere at 37° C. Cells were plated onto sterile 24-well and allowed to recover for a confluent cell monolayer formed in each well (>95% confluence). Wounds were then inflicted to each cell monolayer using a sterile 200 μL pipette tip. Media were removed, cells monolayers were washed twice with PBS, and then fresh media containing test compounds were added to each well. Test compounds were prepared in DMSO at 5 μM concentration and added to the plates, each in triplicate using DMSO as negative control. The incubation was carried out for 24 h under serum-starved conditions, after which media was removed and cells were fixed and stained using a staining composition sold under the trade name Diff Quick (Dade Behring Diagnostics, Aguada, Puerto Rico). The stain comprised a fixative reagent containing 1.8 mg/L triarylmethane dye in methyl alcohol; a first solution of 1 g/L xanthene dye, buffer, and sodium azide (0.01%) as preservative; and a second solution of 1.25 g/L Thiazine dye mixture (0.625 g/L azure A and 0.625 g/L methylene blue) and buffer. The number of cells migrated on the scratched wound were counted under the microscope in three or more randomly selected fields (magnification: 400×). Final results are expressed as mean±SEM per 400× field. The wound-healing assay is a simple method for the study of directional cell migration in vitro.
Compounds were tested for their ability to inhibit the migration of the highly metastatic MDA-MB-231 human breast cancer cells in the wound-healing assay using the procedure described above. Compounds 6, 10, 12, 13, 24, 26, 27, and 29 inhibited the migration of more than 50% of the human breast cancer cells MDA-MB-231 in the wound healing assay at 5 μM dose. […] The antimigratory activity of tocotrienols may be enhanced by a terminal aromatic functionality. The presence of electron withdrawing group, such as nitro in Compound 29, may eliminate the antiproliferative activity yet retain the antimigratory activity of the compound. While the electron donating groups, such as OH and OMe found in Compounds 23 and 26, respectively, retained both antiproliferative and antimigratory activities.
Utilizing similar procedures follow-up testing was conducted on a variety of compounds using a range of compound concentrations. The results of follow-up antimigratory testing are shown in FIG. 35B and Table III below with IC50 values calculated using statistical software.

[7] = MCF-10A, MCF10A cells, Table II, non-linear regression, read-out: MCF10A (IC50)
[8] = MCF 10A non-tumorigenic cells, Table I, read-out: IC50 MCF 10A

| SMILES | IC50 [1] | mean percent growth across all 60 cell lines (mean 60) [2] | antiproliferative activity against +SA mammary tumor cells (in words) [1] | IC50 [3] | IC50 [4] | IC50 [5, 7] | IC50 [5, 8] | Selectivity index [5] | inhibition at 5 µM [6] | IC50 [6] |
| --- | --- | --- | --- | --- | --- | --- | --- | --- | --- | --- |
| CC(C)=CCC/C(C)=C/CC/C(C)=C/CC[C@]1(C)CCc2c(CNCCc3ccc(O)cc3)c(O)c(C)c(C)c2O1 [Compound 31, (R)-5-((4-hydroxyphenethylamino)methyl)-2,7,8-trimethyl-2-((3E,7E)-4,8,12-trimethyltrideca-3,7,11-trienyl)chroman-6-ol] | 0.47 µM | comparable to the activity of Compound 1 | – | – | – | – | – | – | – | – |
| CC(C)=CCC/C(C)=C/CC/C(C)=C/CC[C@]1(C)CCc2c3c(c(C)c(C)c2O1)OCN(CCc1ccc(O)cc1)C3 [Compound 26, 4-(2-((R)-5,6,8-trimethyl-8-((3E,7E)-4,8,12-trimethyltrideca-3,7,11-trienyl)-9,10-dihydrochromeno[5,6-e][1,3]oxazin-2(1H,3H,8H)-yl)ethyl)phenol] | – | – | very high activities | 10.6 µM | > 5 µM | 8.5 µM | 8.5 µM | 5.67 | > 50% | 4.5 µM |
| CC(C)=CCC/C(C)=C/CC/C(C)=C/CC[C@]1(C)CCc2c3c(c(C)c(C)c2O1)OCN(Cc1ccccc1)C3 [Compound 6, (R)-2-benzyl-5,6,8-trimethyl-8-((3E,7E)-4,8,12-trimethyltrideca-3,7,11-trienyl)-1,2,3,8,9,10-hexahydrochromeno[5,6-e][1,3]oxazine] | 1.2 to 2.2 µM | – | inactive | > 20 µM | 27.3 µM | – | – | – | > 50% | – |
| CC(C)=CCC/C(C)=C/CC/C(C)=C/CC[C@]1(C)CCc2c3c(cc(C)c2O1)OCN(CCCO)C3 [Compound 13, 3-((R)-6,8-dimethyl-8-((3E,7E)-4,8,12-trimethyltrideca-3,7,11-trienyl)-9,10-dihydrochromeno[5,6-e][1,3]oxazin-2(1H,3H,8H)-yl)propan-1-ol] | – | negative | – | > 20 µM | > 10 µM | 6.5 µM | 6.5 µM | 3.61 | > 50% | 6 µM |
| CC(C)=CCC/C(C)=C/CC/C(C)=C/CC[C@]1(C)CCc2c3c(cc(C)c2O1)OCN(CCCCO)C3 [Compound 36, 4-((R)-6,8-dimethyl-8-((3E,7E)-4,8,12-trimethyltrideca-3,7,11-trienyl)-9,10-dihydrochromeno[5,6-e][1,3]oxazin-2(1H,3H,8H)-yl)butan-1-ol] | – | negative | – | 16.3 µM | > 5 µM | 4.2 µM | 4.2 µM | 2.34 | – | 2.2 µM |
